We go through two compounds from patent US4351840A, “Antibacterial esters of resorcinol with ampicillin and penicillanic acid 1,1-dioxide derivatives” (priority 1981, dated 1982).

In experiment [1] the test system is beta-lactamase from Escherichia coli 51A129. The experiment in a line: Inhibition of ampicillin hydrolysis by cell-free beta-lactamase (microiodometric). The class given is biochemical. Conditions: ampicillin 33 μM, pH 6.5, 37° C. On the procedure: (§1) The compounds of the present invention are thus evaluated in vitro by the ability of penicillanic acid 1,1-dioxide derivatives of the formula (IV) to inhibit the hydrolysis of beta-lactam antibiotics by beta-lactamase enzymes. The hydrolysis of ampicillin was determined by the microiodometric method of Novick [Biochem, J. 83, 236 (1962)]. Conditions for this assay are 0.5 M potassium phosphate, pH 6.5 and 37° C. Reactions were initiated by the addition of the cell-free beta-lactamase, except in the case of preincubation experiments in which the inhibitor and enzyme were incubated together in the assay mixture for 10 minutes before initiation of the reaction by addition of substrate. With the cellfree extracts of Staphylococcus aureus, Escherichia coli, Klebsiella pneumoniae and Pseudomonas aeruginosa, the substrate was ampicillin at 33 micro M (13 microg./ml). Typical specific activities of the beta-lactamase preparations were, respectively, 6,019, 88,970, 260 and 76 micromol/hr. per mg. of protein.
(§2) Cell-free extracts were prepared by sonic treatment (using three 30-s bursts at 4° C. except for S. aureus, which was broken with a French press) of cultures grown in brain heart infusion on a rotary shaker incubator. For the S. aureus, P. aeruginose, and E. cloacae strains, de novo synthesis of beta-lactamase was induced by growing a log-phase culture in the presence of a sublethal concentration of penicillin G at 100, 1,000, and 300 microg./ml, respectively, for 2.5 hr.

Experiment [2] deals with beta-lactamase from Klebsiella pneumoniae 53A129. Described as above. Format: biochemical. The note with it: ampicillin 33 μM, pH 6.5, 37° C. The procedure:
as §1, §2

The target of experiment [3] is beta-lactamase from Pseudomonas aeruginosa 52A104 (Pseudomonas aeruginosa, UniProt P24735). Described as above. The note with it: ampicillin 33 μM, pH 6.5, 37° C., read-out: % Inhibition Beta-Lactam Hydrolysis. Format: biochemical. The procedure:
as §1, §2

Experiment [4] concerns the target T1, beta-lactamase from Staphylococcus aureus 01A400 (Staphylococcus aureus, UniProt P00807).
T1 construct: Cell-free extracts were prepared by sonic treatment; endogenous in cells; host or cells: Staphylococcus aureus strain 01A400, induced with penicillin G; cell-free extract by French press
Described as above. The class given is biochemical. On the procedure:
as §1, §2

Experiment [5] relates to Citrobacter diversus 70C031. The experiment can be described thus: Minimum inhibitory concentration on BHI agar. Format: cell-based. The note with it: 18 hrs., 37° C., inhibitor alone or 1:1 mixture with ampicillin. The procedure: (§3) The procedure which follows is the one recommended by the International Collaborative Study on Antibiotic Sensitivity Testing [Ericcson and Sherris, Acta. Pathologica et Microbiologia Scandinav, Supp. 217, Sections A and B: 64-68 (1971)], and employs brain heart infusion (BHI) agar and the inocula replicating device. Overnight growth tubes are diluted 100 fold for use as the standard inoculum (20,000-10,000 cells in approximately 0.002 ml are placed on the agar surface; 20 ml of BHI agar/dish). Twelve 2 fold dilutions of the test compound are employed, with initial concentration of the test drug being 200 mcg/ml. Single colonies are disregarded when reading tubes after 18 hrs. at 37° C.
(§4) These MIC's are then compared with the MIC values obtained with a combination of ampicillin and the beta-lactamase inhibitor. […] The MIC values of combinations are measured using the method described by Barry and Sabath in "Manual of Clinical Microbiology", edited by Lenette, Spaulding and Truant, 2nd Edition, 1974, American Society for Microbiology.

Experiment [6] has as its system Enterobacter cloacae 67B009. The experiment in a line: Minimum inhibitory concentration on BHI agar. The class given is cell-based. The note with it: 18 hrs., 37° C., inhibitor alone or 1:1 mixture with ampicillin. On the procedure: as §3, §4
In a further experiment the test system is Escherichia coli 51A266. The experiment can be described thus: Minimum inhibitory concentration on BHI agar. Format: cell-based. The note with it: 18 hrs., 37° C., inhibitor alone or 1:1 mixture with ampicillin. The procedure: as §3, §4
Experiment [7] has as its system Klebsiella pneumoniae 53A079. The experiment in a line: Minimum inhibitory concentration on BHI agar. Format: cell-based. The note with it: 18 hrs., 37° C., inhibitor alone or 1:1 mixture with ampicillin. The procedure:
as §3, §4

Another experiment deals with Proteus morgani 57G001. The experiment can be described thus: Minimum inhibitory concentration on BHI agar. The note with it: 18 hrs., 37° C., inhibitor alone or 1:1 mixture with ampicillin. Format: cell-based. The procedure: as §3, §4
Experiment [8] deals with Pseudomonas aeruginosa 52A104. The experiment can be described thus: Minimum inhibitory concentration on BHI agar. The class given is cell-based. Conditions: 18 hrs., 37° C., inhibitor alone or 1:1 mixture with ampicillin. On the procedure: as §3, §4
Experiment [9] relates to Serratia marcescens 63A095. The experiment can be described thus: Minimum inhibitory concentration on BHI agar. Format: cell-based. Conditions: 18 hrs., 37° C., inhibitor alone or 1:1 mixture with ampicillin. The procedure:
as §3, §4

Experiment [10] relates to Staphylococcus aureus 01A005. The experiment can be described thus: Minimum inhibitory concentration on BHI agar. The class given is cell-based. Conditions: 18 hrs., 37° C., inhibitor alone or 1:1 mixture with ampicillin. On the procedure:
as §3, §4

Experiment [11] relates to Staphylococcus aureus 01A400. The experiment in a line: Minimum inhibitory concentration on BHI agar. Format: cell-based. Conditions: 18 hrs., 37° C., inhibitor alone or 1:1 mixture with ampicillin. The procedure: as §3, §4
The mark [12] stands for this setting: pH 6.5, read-out: % Inhibition Beta-Lactam Hydrolysis.

Molecules are shown by their SMILES. Where two headings read alike, the source gives them in different places.

T1 sequence (P00807 25-281): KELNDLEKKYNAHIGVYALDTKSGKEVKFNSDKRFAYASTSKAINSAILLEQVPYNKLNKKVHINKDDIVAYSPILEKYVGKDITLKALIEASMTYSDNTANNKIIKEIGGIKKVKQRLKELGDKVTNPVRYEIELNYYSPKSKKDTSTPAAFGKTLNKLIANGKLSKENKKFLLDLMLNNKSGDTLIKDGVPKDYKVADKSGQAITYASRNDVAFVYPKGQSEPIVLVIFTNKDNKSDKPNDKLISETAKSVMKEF
Sequence of beta-lactamase from Pseudomonas aeruginosa 52A104 (P24735 27-397): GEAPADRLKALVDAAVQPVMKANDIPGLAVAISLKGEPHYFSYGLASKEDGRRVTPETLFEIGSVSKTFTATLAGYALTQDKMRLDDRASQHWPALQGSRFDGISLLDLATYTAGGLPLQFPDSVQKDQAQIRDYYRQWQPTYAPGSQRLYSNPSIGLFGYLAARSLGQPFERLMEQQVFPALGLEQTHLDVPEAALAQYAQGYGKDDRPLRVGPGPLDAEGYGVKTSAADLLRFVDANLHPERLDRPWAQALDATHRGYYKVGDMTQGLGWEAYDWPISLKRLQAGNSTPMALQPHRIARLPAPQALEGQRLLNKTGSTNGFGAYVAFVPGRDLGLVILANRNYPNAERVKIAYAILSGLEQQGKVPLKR

As a reminder, the inhibition is the drop in the measured response relative to a control, in per cent. The MIC is the smallest concentration in the dilution series that meets the test's criterion for growth inhibition. With `CC1(C)[C@H](C(=O)O)N2C(=O)C[C@H]2S1(=O)=O` [B, Penicillanic acid 1,1-dioxide], the “% Inhibition Beta-Lactam Hydrolysis” value in experiment [1] (inhibitor 1.0 μM) worked out at 97.0%; in experiment [1] (inhibitor 16.5 μM), 100%; in experiment [1] (inhibitor 66 μM), 100%; in experiment [2] (inhibitor 16.5 μM), 100%; in experiment [2] (inhibitor 66 μM), 100%. Also, the results for the inhibition at 16.5 µM in experiment [3] (inhibitor 16.5 μM) and in experiment [4] (setting [12]) were 5% and 95%, respectively. Besides, the inhibition at 66 µM in [3] (inhibitor 66 μM) was 27.5%; in [4] (setting [12]), 100%. Further, the inhibition at 1 µM in [4] (setting [12]) was found to be 0%. Also, the MIC in [5] was 200 µg/mL; in experiment [6], 100 µg/mL; in the experiment with Escherichia coli 51A266, 25 µg/mL; in experiment [7], 50 µg/mL; with Proteus morgani 57G001, 200 µg/mL; in experiment [8], over 200 µg/mL. The minimum inhibitory concentration (MIC) in experiment [9] is 200 µg/mL; in [10], 100 µg/mL; in experiment [11], 200 µg/mL.

As to `CC1(C)[C@H](C(=O)O)N2C(=O)[C@@H](CO)[C@H]2S1(=O)=O` [A, 6-beta-(Hydroxymethyl)pencillanic acid 1,1-dioxide], the “% Inhibition Beta-Lactam Hydrolysis” value in [1] (inhibitor 0.67 μM) is given as 92.1%; in [1] (inhibitor 1.0 μM), 95.7%; in experiment [1] (inhibitor 16.5 μM), 100%; in experiment [1] (inhibitor 66 μM), 100%; in experiment [2] (inhibitor 1.0 μM), 81.2%; in experiment [2] (inhibitor 16.5 μM), 100%. Besides, in experiment [2] (inhibitor 66 μM), the “% Inhibition Beta-Lactam Hydrolysis” value is reported as 100%. For the same compound, the inhibition at 1 µM in [4] (inhibitor 1.0 μM, ampicillin 33 μM, pH 6.5, 37° C., read-out: % Inhibition Beta-Lactam Hydrolysis) worked out at 39.3%. The inhibition at 16.5 µM in experiment [4] (inhibitor 16.5 μM, ampicillin 33 μM, pH 6.5, 37° C., read-out: % Inhibition Beta-Lactam Hydrolysis) was determined as 78.8%. In addition, the inhibition at 66 µM in [4] (inhibitor 66 μM, ampicillin 33 μM, pH 6.5, 37° C., read-out: % Inhibition Beta-Lactam Hydrolysis) is 98.3%.
